Measurements from article PMC3475717, “A Spiroligomer α-Helix Mimic That Binds HDM2, Penetrates Human Cells and Stabilizes HDM2 in Cell Culture” (PLoS ONE, 2012).

Test system: HepG2 cells
Test: cell penetration, fluorescence and confocal microscopy; active vs. passive transport
Format: cell-based, human
Description: Cell Culture and Treatment. HepG2 (expressing wild-type p53) and Huh7 (expressing mutant p53) cell lines were purchased from the American Type Culture Collection (ATCC) and cultured as monolayers in Dulbecco’s modified Eagle’s medium (DMEM) (Invitrogen) supplemented with 100 mM nonessential amino acid solution, 100 mM sodium pyruvate, 100 U/mL penicillin, 100 μg/mL streptomycin, and 10% heat inactivated fetal bovine serum (FBS) (all from Hyclone).
Cells were maintained at 37° C and 5% CO2 and were treated with media that contained 0.5%
FBS. Nutlin-3 (Sigma) was dissolved in 0.01% DMSO (Sigma). This concentration of DMSO did not affect the cell phenotype. Both nutlin-3 and spiroligomers were added into the medium for final concentrations of 2 µM, 5 µM, 10 µM and 20 µM for 24 hours. For the western blot experiments detailed below, the time length for incubation with bis-peptide was 17 hours.
Fluorescence and Confocal Microscopy. Fluorescence and confocal microscopy were applied to live and fixed cells. Cells were grown on glass chambers and fixed with ice-cold 95:5 ethanol/acetic acid for 10 minutes at -20 °C. Sections were washed with PBS and mounted in Vectashield aqueous mounting medium with DAPI (Vector laboratories). Fluorescent specimens were analyzed using an ECLIPSE Ti microscope (Nikon), lenses with hardened […]
(1 picture or pasted object on this page, not shown here) […]
filters (Nikon), and a Nikon DS-Fi1 camera, which was operated by NIS Elements computer software (Nikon). Confocal microscopy was performed with a Leica SP-1 microscope, with illumination at 488 nm and spectral detection. […]
Mathematical model described8 and MxPro software (Stratagene) were used to process PCR data. End-point PCR reactions were assayed with PCR Master Mix (Promega). Samples were amplified in 34 cycles; each cycle consisted of 30 sec of denaturation at 95 °C, 30 sec of annealing at 60 °C, and 30 sec of elongation at 72 °C. After 34 cycles, samples were subjected to final elongation for 5 minutes at 72 °C. […]
fluorescence in the images.

## CC(C)CN1C(=O)[C@@H]2C[C@@]3(CN2C(=O)[C@@]12C[C@H]1C(=O)N(Cc4ccc(Cl)c(Cl)c4)[C@]4(C[C@@H]5C(=O)N[C@@H](CCc6ccccc6)C(=O)N5C4)C(=O)N1C2)NC(=O)[C@@H](CCCCNC(=S)Nc1ccc2c(c1)C(=O)OC21c2ccc(O)cc2Oc2cc(O)ccc21)NC3=O [Compound 1]
  mechanism of cell penetration: passive diffusion
HepG2, 37°C, 60 min pre-treatment with 10 mM sodium azide and 50 mM deoxy-D-glucose, 5 µM, 3.75 hours
  uptake of fluorescence with active transport inhibited: indistinguishable from control cells treated with 1 at 37 °C
